How the values were obtained:
[1] = human
[2] = human, serum
[3] = human, serum; remark: listed apart in the source
[4] = human; remark: listed apart in the source
[5] = human, serum, 4383 h
[6] = Proposed mechanism(s) of liver damage. [column 'MEC' in source]; conditions: human
[7] = human; remark: listed apart in the source
[8] = human; remark: listed apart in the source
[9] = Comments (NB not yet translated). [column 'COMMENTAIRES' in source]; conditions: human
[10] = human; remark: listed apart in the source
[11] = human; remark: listed apart in the source
[12] = human; remark: listed apart in the source
[13] = Highest frequency of acute liver toxicity observed during clinical trials, expressed as a percentage. [column '% AIGUE' in source]; conditions: human
[14] = Highest frequency of moderate liver toxicity observed during clinical trials, expressed as a percentage. [column '% BIOL' in source]; conditions: human
[15] = Times to onset, minimal and maximal, observed in the indexed observations. [column 'DELAI' in source]; conditions: human
[16] = human; remark: listed apart in the source
[17] = human; remark: listed apart in the source
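Throughout, for Hepatotoxicity (association with vascular disease): count of indexed literature references reporting vascular liver injury in humans, e.g. peliosis hepatitis, hepatic veno-occlusive disease or Budd-Chiari syndrome.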
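Throughout, for Hepatotoxicity (benign tumour): value is a count of indexed literature references citing a benign tumour confirmed by histopathology.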
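Throughout, for Hepatotoxicity (choleostasis): human cholestatic liver injury, shown by histopathology or by peak ALT or AST elevation over alkaline phosphatase ratio below 2, value counts indexed literature reports.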
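Throughout, for Hepatotoxicity (chronic liver disease): chronic liver injury confirmed by histopathology or persistently raised serum aminotransferase activity beyond 6 months, value given as the count of indexed literature references.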
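Throughout, for Hepatotoxicity (cirrhosis): value is a count of indexed literature references reporting cirrhosis confirmed by histopathology.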
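Throughout, for Hepatotoxicity (cytolytic): human cytolytic liver injury, shown by histopathology or by a ratio above 5 of peak ALT or AST elevation to alkaline phosphatase elevation, value counts indexed references.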
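Throughout, for Hepatotoxicity (granulomatous hepatitis): value is a count of indexed literature references reporting granulomatous liver disease confirmed by histopathology.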
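Throughout, for Hepatotoxicity (malignant tumour): malignant tumour confirmed by histopathology, value gives the count of indexed literature references reporting it.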
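Throughout, for Hepatotoxicity (severe hepatitis): human clinical data: severe hepatitis, meaning potentially life-threatening liver failure or clinically observed cases, the value counts how many indexed literature references report it.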
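Throughout, for Hepatotoxicity (steatosis): steatosis confirmed by histopathology, value is the count of indexed references.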

Cc1c(C)c2c(c(C)c1O)CC[C@@](C)(CCC[C@H](C)CCC[C@H](C)CCCC(C)C)O2 [ALPHA-TOCOPHEROL]
Hepatotoxicity (cirrhosis) [1]: 0
Hepatotoxicity (acute) [2]: 3
Hepatotoxicity (moderate) [3]: 0
Hepatotoxicity (choleostasis) ([4]; Liver): 3
Hepatotoxicity (chronic liver disease) [5]: 0
Hepatotoxicity (mechanism) ([6]; Liver): Dose-dependant
Hepatotoxicity (cytolytic) ([7]; Liver): 3
Hepatotoxicity (malignant tumour) [8]: 0
Hepatotoxicity (comment) [9]: CONCERNE_E-FEROL*
Hepatotoxicity (steatosis) [10]: 0
Hepatotoxicity (benign tumour) [11]: 0
Hepatotoxicity (association with vascular disease) [12]: 0
Hepatotoxicity (acute) ([13]; Liver): 0%
Hepatotoxicity (moderate) ([14]; Liver): 0%
Hepatotoxicity (time to onset) [15]: 1 week - 2 months
Hepatotoxicity (granulomatous hepatitis) ([16]; Liver): 0
Hepatotoxicity (severe hepatitis) ([17]; Liver): 4

CCCN(CCC)C(=O)Cc1c(-c2ccc(Cl)cc2)nc2ccc(Cl)cn12 [ALPIDEM]
Hepatotoxicity (cirrhosis) [1]: 0
Hepatotoxicity (acute) [2]: 5
Hepatotoxicity (moderate) [3]: 0
Hepatotoxicity (choleostasis) [4]: 0
Hepatotoxicity (chronic liver disease) [5]: 0
Hepatotoxicity (mechanism) [6]: Allergic
Hepatotoxicity (cytolytic) [7]: 4
Hepatotoxicity (malignant tumour) [8]: 0
Hepatotoxicity (comment) [9]: AC_ANTI-N
Hepatotoxicity (steatosis) [10]: 0
Hepatotoxicity (benign tumour) [11]: 0
Hepatotoxicity (association with vascular disease) [12]: 0
Hepatotoxicity (acute) [13]: 0%
Hepatotoxicity (moderate) [14]: 0%
Hepatotoxicity (time to onset) [15]: 1 month - 8 months
Hepatotoxicity (granulomatous hepatitis) [16]: 0
Hepatotoxicity (severe hepatitis) [17]: 5

Cc1cnc(C(=O)NCCc2ccc(S(=O)(=O)NC(=O)NC3CCCCC3)cc2)cn1 [GLIPIZIDE]
Hepatotoxicity (cirrhosis) [1]: 0
Hepatotoxicity (moderate) [3]: 1
Hepatotoxicity (choleostasis) [4]: 0
Hepatotoxicity (chronic liver disease) [5]: 0
Hepatotoxicity (mechanism) [6]: Allergic
Hepatotoxicity (cytolytic) [7]: 3
Hepatotoxicity (malignant tumour) [8]: 0
Hepatotoxicity (comment) [9]: AC_ANTI-ML
Hepatotoxicity (steatosis) [10]: 0
Hepatotoxicity (benign tumour) [11]: 0
Hepatotoxicity (association with vascular disease) [12]: 0
Hepatotoxicity (moderate) ([14]; Liver): 0%
Hepatotoxicity (time to onset) [15]: 2 days - 5 months
Hepatotoxicity (granulomatous hepatitis) [16]: 0
Hepatotoxicity (severe hepatitis) ([17]; Liver): 2

O=C(Nc1ccc(Cl)cc1)NS(=O)(=O)c1ccc2c(c1)CCC2 [SULOFENUR]
Hepatotoxicity (cirrhosis) [1]: 0
Hepatotoxicity (acute) [2]: 6
Hepatotoxicity (moderate) [3]: 9
Hepatotoxicity (choleostasis) [4]: 3
Hepatotoxicity (chronic liver disease) [5]: 0
Hepatotoxicity (mechanism) [6]: Dose-dependant
Hepatotoxicity (cytolytic) [7]: 4
Hepatotoxicity (malignant tumour) [8]: 0
Hepatotoxicity (comment) [9]: CHOLANGITE
Hepatotoxicity (steatosis) [10]: 0
Hepatotoxicity (benign tumour) [11]: 0
Hepatotoxicity (association with vascular disease) [12]: 0
Hepatotoxicity (acute) [13]: 18.8%
Hepatotoxicity (moderate) [14]: 80%
Hepatotoxicity (granulomatous hepatitis) [16]: 0
Hepatotoxicity (severe hepatitis) [17]: 0

Nc1ncnc2c1ncn2[C@@H]1O[C@H](CO)[C@@H](O)[C@@H]1O [VIDARABINE]
Hepatotoxicity (cirrhosis) [1]: 0
Hepatotoxicity (acute) [2]: 0
Hepatotoxicity (moderate) [3]: 5
Hepatotoxicity (choleostasis) [4]: 0
Hepatotoxicity (chronic liver disease) [5]: 0
Hepatotoxicity (cytolytic) [7]: 0
Hepatotoxicity (malignant tumour) [8]: 0
Hepatotoxicity (comment) [9]: AGGRAVATION_HEPATITE_VIRALE
Hepatotoxicity (steatosis) [10]: 0
Hepatotoxicity (benign tumour) [11]: 0
Hepatotoxicity (association with vascular disease) [12]: 0
Hepatotoxicity (acute) [13]: 0%
Hepatotoxicity (moderate) [14]: 17%
Hepatotoxicity (time to onset) [15]: 1 week
Hepatotoxicity (granulomatous hepatitis) [16]: 0
Hepatotoxicity (severe hepatitis) [17]: 1

ANISTREPLASE
Hepatotoxicity (cirrhosis) [1]: 0
Hepatotoxicity (acute) [2]: 1
Hepatotoxicity (moderate) [3]: 0
Hepatotoxicity (choleostasis) [4]: 0
Hepatotoxicity (chronic liver disease) [5]: 0
Hepatotoxicity (cytolytic) [7]: 1
Hepatotoxicity (malignant tumour) [8]: 0
Hepatotoxicity (comment) [9]: HEMATOME_SOUS_CAPSULAIRE
Hepatotoxicity (steatosis) [10]: 0
Hepatotoxicity (benign tumour) [11]: 0
Hepatotoxicity (association with vascular disease) [12]: 0
Hepatotoxicity (acute) [13]: 0%
Hepatotoxicity (moderate) [14]: 0%
Hepatotoxicity (time to onset) [15]: 6 days
Hepatotoxicity (granulomatous hepatitis) [16]: 0
Hepatotoxicity (severe hepatitis) [17]: 0

ETANERCEPT
Hepatotoxicity (cirrhosis) [1]: 0
Hepatotoxicity (acute) [2]: 0
Hepatotoxicity (moderate) [3]: 2
Hepatotoxicity (choleostasis) [4]: 0
Hepatotoxicity (chronic liver disease) [5]: 0
Hepatotoxicity (cytolytic) [7]: 0
Hepatotoxicity (malignant tumour) [8]: 0
Hepatotoxicity (comment) [9]: CHOLECYSTITE
Hepatotoxicity (steatosis) [10]: 0
Hepatotoxicity (benign tumour) [11]: 0
Hepatotoxicity (association with vascular disease) [12]: 0
Hepatotoxicity (acute) [13]: 0%
Hepatotoxicity (moderate) [14]: 5%
Hepatotoxicity (time to onset) [15]: 4 weeks - 14 weeks
Hepatotoxicity (granulomatous hepatitis) [16]: 0
Hepatotoxicity (severe hepatitis) [17]: 0

GONADOTROPIN, SERUM
Hepatotoxicity (cirrhosis) [1]: 0
Hepatotoxicity (acute) [2]: 1
Hepatotoxicity (moderate) [3]: 0
Hepatotoxicity (choleostasis) [4]: 0
Hepatotoxicity (chronic liver disease) [5]: 0
Hepatotoxicity (cytolytic) [7]: 1
Hepatotoxicity (malignant tumour) [8]: 0
Hepatotoxicity (comment) [9]: HNF
Hepatotoxicity (steatosis) [10]: 0
Hepatotoxicity (benign tumour) [11]: 1
Hepatotoxicity (association with vascular disease) [12]: 0
Hepatotoxicity (acute) [13]: 0%
Hepatotoxicity (moderate) [14]: 0%
Hepatotoxicity (time to onset) [15]: 39 days - 6 months
Hepatotoxicity (granulomatous hepatitis) [16]: 0
Hepatotoxicity (severe hepatitis) [17]: 0

INFLIXIMAB
Hepatotoxicity (cirrhosis) [1]: 0
Hepatotoxicity (acute) [2]: 8
Hepatotoxicity (moderate) [3]: 3
Hepatotoxicity (choleostasis) [4]: 2
Hepatotoxicity (chronic liver disease) [5]: 0
Hepatotoxicity (cytolytic) [7]: 4
Hepatotoxicity (malignant tumour) [8]: 0
Hepatotoxicity (comment) [9]: CHOLANGITE CHOLECYSTITE REACTIVATION_HVB
Hepatotoxicity (steatosis) [10]: 0
Hepatotoxicity (benign tumour) [11]: 0
Hepatotoxicity (association with vascular disease) [12]: 0
Hepatotoxicity (acute) [13]: 0%
Hepatotoxicity (moderate) [14]: 31.3%
Hepatotoxicity (time to onset) [15]: 19 days - 19 months
Hepatotoxicity (granulomatous hepatitis) [16]: 0
Hepatotoxicity (severe hepatitis) [17]: 2

RITUXIMAB
Hepatotoxicity (cirrhosis) [1]: 0
Hepatotoxicity (acute) [2]: 4
Hepatotoxicity (moderate) [3]: 1
Hepatotoxicity (choleostasis) [4]: 0
Hepatotoxicity (chronic liver disease) [5]: 0
Hepatotoxicity (cytolytic) [7]: 4
Hepatotoxicity (malignant tumour) [8]: 0
Hepatotoxicity (comment) [9]: REACTIVATION_HVB
Hepatotoxicity (steatosis) [10]: 0
Hepatotoxicity (benign tumour) [11]: 0
Hepatotoxicity (association with vascular disease) [12]: 0
Hepatotoxicity (acute) [13]: 0%
Hepatotoxicity (moderate) [14]: 5.6%
Hepatotoxicity (time to onset) [15]: 2 months - 7 months
Hepatotoxicity (granulomatous hepatitis) [16]: 0
Hepatotoxicity (severe hepatitis) [17]: 3

— ChEMBL document CHEMBL3137667, “[Drug-induced liver injury; fourteenth updated edition of the bibliographic database of liver injuries and related drugs]” (Gastroenterol Clin Biol, 2004)
